Like-named read-outs stand apart in the source and are kept apart here.
How the values were obtained:
[1] = molecular target: T1, CDK2 (cyclin A) (Homo sapiens, UniProt P24941); experiment: Z'-LYTE kinase assay; assay type: biochemical
T1 construct: purchased Invitrogen Life Technologies (assay service)
Description: IC50 values of compounds against CDK2 (cyclin A) were determined by Z′-LYTE™ These screening assays were performed at Invitrogen Life Technologies (Grand Island, N.Y.) on a low volume NBS, black 384-well plate (#4514, Corning). 0.1 μL of 100×test compound in 100% DMSO (at specific solutions) was mixed with 2.4 μL of Kinase Buffer (50 mM HEPES pH 7.5, 0.01% BRIJ-35, 10 mM MgCl2, 1 mM EGTA), 5 μL of 2× Kinase (1.22-10.3 ng CDK2/cyclin A)/Peptide (2 μM Ser/Thr 12), and 2.5 μL of 4×ATP solution (31 μM). The plates were shaken for 30 seconds, and incubated for 60 minutes at room temperature. Development Reagent Solution (5 μL of 1:1024 dilution) was added to the plates followed with another 30-second plate shake and the plates were further incubated at room temperature for one hour. The plates were read on fluorescence plate reader with Dual emission at 445 nm and 520 nm.
The following equations were used for Z′-LYTE™ Screening Assay Data Analysis. Percent inhibition (100-% activity) was fitted to the “four-parameter logistic model” in XLfit for determination of IC50 values.

[2] = molecular target: T2, FMS kinase (Homo sapiens, UniProt P07333); experiment: LanthaScreen Eu Kinase Binding Assay (ATP, fluorescent-PolyGT substrate); assay type: biochemical
T2 construct: purchased Invitrogen (Life Technologies)
Procedure, shortened: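 TR-FRET read (ex 340, em 495 and 520 nm) after EDTA/Tb-labelled antibody stop; IC50 by four-parameter logistic fit of percent inhibition. Reaction: 1.25 nM FMS, 10 min compound preincubation (3-fold series), then 1 h at room temperature with 10 μM ATP and 200 nM fluorescent PolyGT.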

[3] = test system: DU4475 breast carcinoma cells; experiment: Cancer cell proliferation assay, single agent (cell viability); assay type: cell-based; settings: Homo sapiens, DU-4475; Table 4; Rb negative; treatment 144 Hr with medium change at 72 Hr; Cell Titer-Glo or resazurin
Procedure, shortened: (§1)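 Viability read by resazurin or CellTiter-Glo after 24 h treatment (BT-549) or 144 h with a 72 h medium change (MCF-7, DU4475). Compounds tested at 7–9 concentrations, e.g. 1.1 nM–10 μM, added the day after seeding; IC50 by nonlinear sigmoidal regression.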

[4] = test system: MCF-7 breast adenocarcinoma cells; experiment: as above; assay type: cell-based; settings: Homo sapiens, MCF7, Table 4; Rb positive; treatment 144 Hr with medium change at 72 Hr; Cell Titer-Glo or resazurin
Procedure, shortened: as §1

[5] = molecular target: T3, CDK1 (cyclin B) (Homo sapiens, UniProt P06493); experiment: Z'-LYTE kinase assay; assay type: biochemical
T3 construct: purchased Invitrogen Life Technologies (assay service)
Description: The plates were shaken for 30 seconds, and incubated for 60 minutes at room temperature. […] The plates were read on fluorescence plate reader with Dual emission at 445 nm and 520 nm.
The following equations were used for Z′-LYTE™ Screening Assay Data Analysis.

[6] = molecular target: T4, CDK4 (Homo sapiens, UniProt P11802); experiment: In vitro kinase inhibition IC50, luminescence (ADP Glo), retinoblastoma substrate; assay type: biochemical; settings: read-out: CDK4/D1 IC50
T4 construct: purchased Invitrogen PR8064A
Procedure, shortened: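 Inhibition of CDK4 was quantified by ADP Glo luminescence with retinoblastoma as substrate. Reactions held 5 nM kinase, 1 μM retinoblastoma and 25 μM ATP and ran 2H at room temperature. A Synergy Neo reader took signals 15 min and 45 min after detection reagent, and percent inhibition was fitted to a four-parameter logistic model in XLfit to obtain IC50.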

[7] = molecular target: T5, CDK6 (Homo sapiens, UniProt Q00534); experiment: as above; assay type: biochemical; settings: read-out: CDK6/D1 IC50
T5 construct: purchased Invitrogen PR8422B
Procedure, shortened: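 IC50 derived by four-parameter logistic fit of percent inhibition, read as ADP-Glo luminescence. Reactions: 5 nM CDK6, 1 μM retinoblastoma, 25 μM ATP, test compound 0.1–200 nM final, 2 h at room temperature.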

T2 sequence (P07333 20-972): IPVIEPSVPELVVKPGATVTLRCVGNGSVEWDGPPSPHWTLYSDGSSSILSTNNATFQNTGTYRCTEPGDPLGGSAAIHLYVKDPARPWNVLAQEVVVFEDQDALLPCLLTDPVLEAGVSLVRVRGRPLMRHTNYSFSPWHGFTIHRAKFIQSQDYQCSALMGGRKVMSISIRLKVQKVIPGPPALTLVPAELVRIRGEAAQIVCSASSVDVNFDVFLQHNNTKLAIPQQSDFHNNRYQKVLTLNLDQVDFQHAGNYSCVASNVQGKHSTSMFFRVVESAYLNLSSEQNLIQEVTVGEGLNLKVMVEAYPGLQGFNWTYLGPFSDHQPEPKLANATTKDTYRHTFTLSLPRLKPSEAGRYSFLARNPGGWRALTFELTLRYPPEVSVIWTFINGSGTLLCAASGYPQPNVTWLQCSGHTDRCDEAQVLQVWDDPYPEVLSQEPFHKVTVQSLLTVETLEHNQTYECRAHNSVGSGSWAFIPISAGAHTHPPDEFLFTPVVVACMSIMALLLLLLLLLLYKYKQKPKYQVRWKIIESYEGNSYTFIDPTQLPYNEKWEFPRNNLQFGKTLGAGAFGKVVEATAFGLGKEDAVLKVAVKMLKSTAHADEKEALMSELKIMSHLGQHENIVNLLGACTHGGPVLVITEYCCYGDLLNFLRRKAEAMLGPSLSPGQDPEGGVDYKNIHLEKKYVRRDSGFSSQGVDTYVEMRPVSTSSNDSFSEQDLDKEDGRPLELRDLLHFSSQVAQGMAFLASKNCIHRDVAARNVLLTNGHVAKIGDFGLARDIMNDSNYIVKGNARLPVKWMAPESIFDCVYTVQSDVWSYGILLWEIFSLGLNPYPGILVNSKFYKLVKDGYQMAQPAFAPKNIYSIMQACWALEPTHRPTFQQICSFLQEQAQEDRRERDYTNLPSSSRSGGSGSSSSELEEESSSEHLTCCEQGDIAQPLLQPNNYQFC
T5 sequence (Q00534 whole entry): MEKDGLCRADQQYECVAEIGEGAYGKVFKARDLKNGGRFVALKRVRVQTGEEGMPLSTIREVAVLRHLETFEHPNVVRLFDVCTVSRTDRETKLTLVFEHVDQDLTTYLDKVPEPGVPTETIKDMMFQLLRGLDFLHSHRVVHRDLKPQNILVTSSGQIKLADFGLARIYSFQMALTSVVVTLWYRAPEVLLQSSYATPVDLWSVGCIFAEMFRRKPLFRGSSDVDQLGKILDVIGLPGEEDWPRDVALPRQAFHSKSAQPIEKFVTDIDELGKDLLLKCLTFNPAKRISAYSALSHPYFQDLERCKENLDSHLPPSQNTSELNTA
T5 sequence (P24385 whole entry partner): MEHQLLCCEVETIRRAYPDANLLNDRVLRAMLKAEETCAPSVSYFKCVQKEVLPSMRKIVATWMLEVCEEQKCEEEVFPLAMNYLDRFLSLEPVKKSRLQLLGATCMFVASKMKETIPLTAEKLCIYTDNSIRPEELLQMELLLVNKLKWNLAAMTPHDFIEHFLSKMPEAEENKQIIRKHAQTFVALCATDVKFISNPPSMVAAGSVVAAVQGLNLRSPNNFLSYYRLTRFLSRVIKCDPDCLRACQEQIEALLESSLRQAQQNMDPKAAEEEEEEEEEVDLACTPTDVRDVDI
T4 sequence (P11802 whole entry): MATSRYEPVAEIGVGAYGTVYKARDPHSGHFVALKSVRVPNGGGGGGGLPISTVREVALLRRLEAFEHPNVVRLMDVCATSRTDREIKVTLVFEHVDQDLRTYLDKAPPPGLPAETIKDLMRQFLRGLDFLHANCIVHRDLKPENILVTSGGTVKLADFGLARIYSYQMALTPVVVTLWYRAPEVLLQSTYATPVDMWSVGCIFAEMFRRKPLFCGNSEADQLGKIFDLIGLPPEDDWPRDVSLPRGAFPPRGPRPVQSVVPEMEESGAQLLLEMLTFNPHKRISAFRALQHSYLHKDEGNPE
T4 sequence (P24385 whole entry partner): as the sequence (P24385 whole entry partner) above
T3 sequence (P06493 whole entry): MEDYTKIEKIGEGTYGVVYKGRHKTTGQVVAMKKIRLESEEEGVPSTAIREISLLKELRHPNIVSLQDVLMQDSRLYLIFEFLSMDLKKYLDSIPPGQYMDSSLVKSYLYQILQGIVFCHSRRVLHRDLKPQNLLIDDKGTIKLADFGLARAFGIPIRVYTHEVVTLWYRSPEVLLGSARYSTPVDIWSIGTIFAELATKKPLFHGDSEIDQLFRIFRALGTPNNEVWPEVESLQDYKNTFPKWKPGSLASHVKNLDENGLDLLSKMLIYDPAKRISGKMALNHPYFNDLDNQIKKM
T3 sequence (P14635 whole entry partner): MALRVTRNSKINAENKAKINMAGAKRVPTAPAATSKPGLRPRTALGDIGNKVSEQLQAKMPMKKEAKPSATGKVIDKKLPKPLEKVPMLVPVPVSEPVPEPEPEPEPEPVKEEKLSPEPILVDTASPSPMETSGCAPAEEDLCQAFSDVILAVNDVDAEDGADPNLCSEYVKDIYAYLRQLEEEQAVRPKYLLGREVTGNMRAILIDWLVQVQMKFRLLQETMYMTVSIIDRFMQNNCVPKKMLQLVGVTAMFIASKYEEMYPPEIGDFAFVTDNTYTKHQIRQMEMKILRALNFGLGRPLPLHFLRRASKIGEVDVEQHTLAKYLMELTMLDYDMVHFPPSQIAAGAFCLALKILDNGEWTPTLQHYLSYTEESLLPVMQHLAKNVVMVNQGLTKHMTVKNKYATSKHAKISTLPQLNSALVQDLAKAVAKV

| SMILES | IC50 [1] | IC50 [2] | IC50 [3] | IC50 [4] | IC50 ([5]; read-out: CDK1/B IC50) | IC50 [6] | IC50 [7] | IC50 [5] |
| --- | --- | --- | --- | --- | --- | --- | --- | --- |
| N#Cc1cc2cnc(Nc3ccc4c(c3)CCNC4)nc2n(CC2CCCCC2)c1=O [Compound No. 347, 8-(cyclohexylmethyl)-7-oxo-2-((1,2,3,4-tetrahydroisoquinolin-6-yl)amino)-7,8-dihydropyrido[2,3-d]pyrimidine-6-carbonitrile] | 668 nM | 3 nM | 1240 nM | 405 nM | 1530 nM | > 173 nM | > 174 nM |  |
| CS(=O)(=O)N1CC[C@@H](Nc2ncc3cc(C#N)c(=O)n(C4CCCC4)c3n2)[C@H](F)C1 [Compound No. 362, 8-cyclopentyl-2-((3R,4R)-3-fluoro-1-(methylsulfonyl)piperidin-4-ylamino)-7-oxo-7,8-dihydropyrido[2,3-d]pyrimidine-6-carbonitrile] | 82 nM | 90 nM | 2680 nM | 765 nM |  | 6 nM | 15 nM | 1280 nM |
| N#Cc1cc2cnc(Nc3ccc4c(c3)CCNC4)nc2n([C@H]2C[C@@H]3CC[C@H]2C3)c1=O (relative stereo) [Compound No. 354, 8-((S,2S,4R)-bicyclo[2.2.1]heptan-2-yl)-7-oxo-2-(1,2,3,4-tetrahydroisoquinolin-6-ylamino)-7,8-dihydropyrido[2,3-d]pyrimidine-6-carbonitrile] | 176 nM | 3.5 nM | 320 nM | 120 nM | 534 nM | 12 nM | 12 nM |  |
| N#Cc1cc2cnc(NC3CCN(S(=O)(=O)C(F)F)CC3)nc2n(C2CCCC2)c1=O [Compound No. 359, 8-cyclopentyl-2-((1-((difluoromethyl)sulfonyl)piperidin-4-yl)amino)-7-oxo-7,8-dihydropyrido[2,3-d]pyrimidine-6-carbonitrile] | 1870 nM | > 5000 nM | 3240 nM | 330 nM | > 5000 nM | 1.4 nM | 12 nM |  |
| Cc1ccc(S(=O)(=O)N2CCC(Nc3ncc4cc(C#N)c(=O)n(C5CCCC5)c4n3)CC2)cc1 [Compound No. 360, 8-cyclopentyl-7-oxo-2-((1-tosylpiperidin-4-yl)amino)-7,8-dihydropyrido[2,3-d]pyrimidine-6-carbonitrile] | < 1 nM | > 5000 nM | 1420 nM | 255 nM |  | 1.5 nM | 13 nM | 598 nM |
| CS(=O)(=O)N1CCC(Nc2ncc3cc(C#N)c(=O)n(CC4CCCCC4)c3n2)CC1 [Compound No. 348, 8-(cyclohexylmethyl)-2-((1-(methylsulfonyl)piperidin-4-yl)amino)-7-oxo-7,8-dihydropyrido[2,3-d]pyrimidine-6-carbonitrile] | 219 nM | 31 nM | 6840 nM | 725 nM |  | 62 nM | 55 nM | 1380 nM |
| CS(=O)(=O)N1CCC(Nc2ncc3cc(C#N)c(=O)n(-c4c(F)cccc4F)c3n2)CC1 [Compound No. 376, 8-(2,6-difluorophenyl)-2-((1-(methylsulfonyl)piperidin-4-yl)amino)-7-oxo-7,8-dihydropyrido[2,3-d]pyrimidine-6-carbonitrile] | 170 nM | 402 nM | 2440 nM |  |  | 159 nM | 58 nM | 1460 nM |
| N#Cc1cc2cnc(NC3CCN(S(=O)(=O)c4ccc(F)cc4)CC3)nc2n(C2CCCC2)c1=O [Compound No. 361, 8-cyclopentyl-2-((1-((4-fluorophenyl)sulfonyl)piperidin-4-yl)amino)-7-oxo-7,8-dihydropyrido[2,3-d]pyrimidine-6-carbonitrile] | < 1 nM | 539 nM | 1040 nM | 310 nM |  | 1.3 nM | 7.1 nM | 157 nM |
| CS(=O)(=O)N1CC[C@H](Nc2ncc3cc(C#N)c(=O)n(C4CCCC4)c3n2)[C@H](F)C1 [Compound No. 363, 8-cyclopentyl-2-((3R,4S)-3-fluoro-1-(methylsulfonyl)piperidin-4-ylamino)-7-oxo-7,8-dihydropyrido[2,3-d]pyrimidine-6-carbonitrile] | 17 nM | 138 nM | 1660 nM | 265 nM |  | 1.7 nM | 12 nM | 233 nM |
| CCC(CC)n1c(=O)c(C#N)cc2cnc(NC3CCN(S(C)(=O)=O)CC3)nc21 [Compound No. 352, 2-((1-(methylsulfonyl)piperidin-4-yl)amino)-7-oxo-8-(pentan-3-yl)-7,8-dihydropyrido[2,3-d]pyrimidine-6-carbonitrile] | 29 nM | > 5000 nM | 1130 nM | 1420 nM |  | 69 nM | 21 nM | 143 nM |
| N#Cc1cc2cnc(NC3CCN(S(=O)(=O)CCCCCCO)CC3)nc2n(C2CCCC2)c1=O [Compound No. 378, 8-cyclopentyl-2-((1-((6-hydroxyhexyl)sulfonyl)piperidin-4-yl)amino)-7-oxo-7,8-dihydropyrido[2,3-d]pyrimidine-6-carbonitrile] | 30 nM | 402 nM | 670 nM |  |  | 3 nM | 5 nM | 325 nM |
| CCC(C)n1c(=O)c(C#N)cc2cnc(NC3CCN(S(C)(=O)=O)CC3)nc21 (centres unmarked) [Compound No. 351, 8-(sec-butyl)-2-((1-(methylsulfonyl)piperidin-4-yl)amino)-7-oxo-7,8-dihydropyrido[2,3-d]pyrimidine-6-carbonitrile] | 18 nM | 1160 nM | 1400 nM | 205 nM | 117 nM | 48 nM | 15 nM |  |
| CS(=O)(=O)N1CC(Nc2ncc3cc(C#N)c(=O)n(C4CCCC4)c3n2)C1 [Compound No. 372, 8-cyclopentyl-2-((1-(methylsulfonyl)azetidin-3-yl)amino)-7-oxo-7,8-dihydropyrido[2,3-d]pyrimidine-6-carbonitrile] | 705 nM | 1800 nM | > 10000 nM |  | > 4170 nM | > 200 nM | > 200 nM |  |
| CS(=O)(=O)N1CCC(Nc2ncc3cc(C#N)c(=O)n(C4COCC4O)c3n2)CC1 (centres unmarked) [Compound No. 350, 8-(4-hydroxytetrahydrofuran-3-yl)-2-((1-(methylsulfonyl)piperidin-4-yl)amino)-7-oxo-7,8-dihydropyrido[2,3-d]pyrimidine-6-carbonitrile] | 235 nM | > 5000 nM | > 30000 nM | > 10000 nM | 2270 nM | > 200 nM | > 200 nM |  |
| COCCS(=O)(=O)N1CCC(Nc2ncc3cc(C#N)c(=O)n(C4CCCC4)c3n2)CC1 [Compound No. 374, 8-cyclopentyl-2-((1-((2-methoxyethyl)sulfonyl)piperidin-4-yl)amino)-7-oxo-7,8-dihydropyrido[2,3-d]pyrimidine-6-carbonitrile] | 70 nM | 838 nM | 690 nM |  |  | 5 nM | 6 nM | 667 nM |

Source: patent US20220273659A1, “HETEROCYCLIC COMPOUNDS AS KINASE INHIBITORS” (NUVATION BIO INC., priority 2019, published 2022)
